Results on one molecule are retold here after patent US20190202877A1, “DERMASEPTIN-TYPE AND PISCIDIN-TYPE ANTIMICROBIAL PEPTIDES” (THE REGENTS OF THE UNIVERSITY OF COLORADO, a body corporate, priority 2014, published 2019).

Data set [1] concerns methicillin resistant Staph. aureus (MRSA). The data set is classed as cell-based, Staphylococcus aureus. The following applies: for MIC: MH medium, 37° C., 24 h. The procedure:
(§1) MICs were determined by a standard microtiter dilution method in Mueller Hinton (MH) medium. Briefly, cells were grown overnight at 37° C. in MH broth and were diluted in the same medium. Serial dilutions of the peptides were added to the microtiter plates in a volume of 50 μl, followed by the addition of 50 μl of bacteria to give a final inoculum of 5×10^5 colony-forming units (CFU)/mL. The plates were incubated at 37° C. for 24 h, and the MICs were determined as the lowest peptide concentration that inhibited growth.
(§2) Various peptides of the invention were tested for antimicrobial activity as described in Example 1. The antimicrobial activity of these peptides was similarly tested against Gram-positive organisms, including Staphylococcus aureus.

Data set [2] deals with methicillin sensitive Staph. aureus (MSSA). The data set is classed as cell-based, Staphylococcus aureus. The following applies: for MIC: MH medium, 37° C., 24 h. The procedure: as §1, §2
In data set [3] the test system is human red blood cells. The following applies: compared to D-Piscidin 1 or D-Dermaseptin S4; 18 hours.
Procedure: Peptide samples (concentrations determined by amino acid analysis) were added to 1% human erythrocytes in phosphate-buffered saline (100 mM NaCl, 80 mM Na2HPO4, 20 mM NaH2PO4, pH 7.4) and the reaction mixtures were incubated at 37° C. for 18 h in microtiter plates. Two-fold serial dilutions of the peptide samples were carried out. This determination was made by withdrawing aliquots from the hemolysis assays and removing unlysed erythrocytes by centrifugation (800×g). Hemoglobin release was determined spectrophotometrically at 570 nm. The control for 100% hemolysis was a sample of erythrocytes treated with water or 0.1% Triton-X 100. The control for no release of hemoglobin was a sample of 1% erythrocytes without any peptide added. […] The hemolytic activity was determined as the peptide concentration that caused 50% hemolysis of erythrocytes after 18 h (HC50). HC50 as determined from a plot of percent lysis versus peptide concentration (μM). The inventors also determined the hemolytic activity after 1 hour at 37° C.

In brackets after ≈: the same amount, converted by molar mass. Where two headings read alike, the source gives them in different places.

One may read the MIC as the least concentration at which growth counts as inhibited. A lower MIC goes with a more susceptible organism. Take `CC[C@@H](C)[C@@H](NC(=O)CNC(=O)[C@@H](CCCNC(=N)N)NC(=O)[C@@H](Cc1ccccc1)NC(=O)[C@H](NC(=O)[C@@H](Cc1c[nH]cn1)NC(=O)[C@@H](Cc1c[nH]cn1)NC(=O)[C@@H](Cc1ccccc1)NC(=O)[C@H](N)Cc1ccccc1)[C@H](C)CC)C(=O)N[C@@H](C(=O)N[C@H](Cc1c[nH]cn1)C(=O)N[C@@H](C(=O)NCC(=O)N[C@H](CCCCN)C(=O)N[C@@H](C(=O)N[C@@H](C(=O)N[C@H](Cc1c[nH]cn1)C(=O)N[C@H](CCCNC(=N)N)C(=O)N[C@H](CC(C)C)C(=O)N[C@@H](C(=O)N[C@@H](C(=O)NCC(N)=O)[C@H](C)O)C(C)C)[C@H](C)CC)[C@H](C)O)C(C)C)C(C)C` [D-Piscidin 1, reference compound]: the MIC in data set [1] (MRSA strain M21742 (nose)), in data set [1] (MRSA strain M21756 (nose)), in data set [1] (MRSA strain M22111 (ear)), in data set [1] (MRSA strain M22130), in data set [1] (MRSA strain M22224 (leg)) and in data set [1] (MRSA strain M22354) was 3.0 µM (≈ 7.71 µg/mL) each time. The minimum inhibitory concentration (MIC) in data set [1] (MRSA strain M22360 (labia)) turned out to be 1.5 µM (≈ 3.86 µg/mL); in data set [1] (MRSA strain M22424 (arm)), 3.0 µM (≈ 7.71 µg/mL); in data set [2] (MSSA strain BL7429), 3.0 µM (≈ 7.71 µg/mL); in data set [2] (MSSA strain M21913) it was 3.0 µM (≈ 7.71 µg/mL); in data set [2] (MSSA strain M21935), 3.0 µM (≈ 7.71 µg/mL); in data set [2] (MSSA strain M21991), 6.1 µM (≈ 15.7 µg/mL). Further, the minimal inhibitory concentration (MIC) in data set [2] (MSSA strain M22075) was 3.0 µM (≈ 7.71 µg/mL); in data set [2] (MSSA strain M22097), 6.1 µM (≈ 15.7 µg/mL); in data set [2] (MSSA strain M22111) it was 1.5 µM (≈ 3.86 µg/mL); in data set [2] (MSSA strain M22274), 3.0 µM (≈ 7.71 µg/mL); in data set [2] (MSSA strain M22287), 3.0 µM (≈ 7.71 µg/mL); in data set [2] (MSSA strain M22300), 3.0 µM (≈ 7.71 µg/mL). Besides, the minimal inhibitory concentration (MIC) in data set [2] (MSSA strain M22312) was 6.1 µM (≈ 15.7 µg/mL); in data set [2] (MSSA strain M22315), 3.0 µM (≈ 7.71 µg/mL). Also, in data set [1] (geometric mean of MIC from 8 different isolates of MRSA), the “MIC GM, MRSA” value stood at 2.8 µM (≈ 7.2 µg/mL). Further, the “MIC GM, MSSA” value in data set [2] (geometric mean of MIC from 12 different isolates of MSSA) worked out at 3.4 µM (≈ 8.74 µg/mL). Besides, in data set [3], the “Fold improvement in HC50” value was determined as 1.0 fold.
